Experimental findings from patent publication US6482810B1, “Antibiotic composition for inhibition of angiogenesis” (priority 1991, dated 2002) are described below.

Where two headings read alike, the source gives them in different places.

Series [1] has as its system angiogenesis in the cornea. As to the kind of experiment: Drug-containing polymers implanted alone in the cornea. Conditions: polymer without tumor in the cornea.
Series [2] concerns tumor-induced angiogenesis (VX2 carcinoma) in the rabbit cornea. Put plainly: Rabbit cornea angiogenesis assay with VX2 carcinoma and controlled release polymers. Conditions: for factor of decrease of tumor-induced angiogenesis: versus empty polymer.
Series [3] relates to angiogenesis in the cornea. The conditions noted are these: rabbit, in vivo.

Regarding `CN(C)c1ccc(O)c2c1C[C@H]1C[C@H]3[C@H](N(C)C)C(O)=C(C(N)=O)C(=O)[C@@]3(O)C(O)=C1C2=O` [minocycline], the “angiogenesis induced by polymer implanted alone” value (from here on “angiogenesis induced”) in series [1] is recorded as “did not induce angiogenesis”. In addition, the “factor of decrease of tumor-induced angiogenesis” value in series [2] (7 days after implantation) worked out at 4.5; in series [2] (14 days after implantation), 4.4; in series [2] (21 days after implantation), 2.9.
Regarding heparin, the “angiogenesis induced” value in series [1] is given as “promote a mild angiogenic response”.
Take `CC(=O)OCC(=O)[C@@]1(O)CC[C@H]2[C@@H]3CCC4=CC(=O)CC[C@]4(C)[C@H]3C(=O)C[C@@]21C` [cortisone, cortisone acetate]: the “inhibition of tumor angiogenesis (angiogenesis index)” value in series [2] (controlled release from EVAc polymer, 7, 14 and 21 days, P<0.05) is reported as “significantly inhibited”. For the same compound, in series [3], the “angiogenesis induced” value is “did not induce angiogenesis”.
